According to ChEMBL document CHEMBL4418493, “N-hydroxyformamide compounds and compositions comprising them for use as BMP1, TLL1 and/or TLL2 inhibitors” (2018):

Assays:
[1] = Drug metabolism in heparinized pooled human plasma at pH 7.5 assessed as formation of (S)-2-(2-ethoxy-4-(5-((((R)-2-((R)-1-(N-hydroxyformamido)propyl)heptanamido)methyl) carbamoyl)furan-2-yl)benzamido)succinic acid at 100 to 2000 ng/ml incubated up to 4 or 24 hrs by LC-MS/MS analysis; format: ADME, cell-free; conditions: pH 7.5, 24 h
[2] = Reduction in PICP levels in human cardiac fibroblasts incubated for 24 to 48 hrs by ELISA; format: functional
[3] = Drug metabolism in heparinized pooled human plasma at pH 7.5 assessed as formation of (S)-2-(2-(carboxymethoxy)-4-(5-((((R)-2-((R)-1-(N-hydroxyformamido)propyl)heptanamido)methyl)carbamoyl)furan-2-yl)benzamido)succinic acid at 100 to 2000 ng/ml incubated up to 4 or 24 hrs by LC-MS/MS analysis; format: ADME, cell-free; conditions: pH 7.5, 24 h

Question: With CCCCC[C@@H](C(=O)NCNC(=O)c1ccc(-c2ccc(C(=O)N[C@@H](CC(=O)O)C(=O)O)c(OCC)c2)o1)[C@@H](CC)N(C=O)OC(=O)c1ccc2c(c1)OCCO2.N.N as the compound, how does the Drug metabolism [1] read?
Answer: Metabolite_Detected

Question: What about the IC50 [2] of the same compound?
Answer: < 3.98 µM

Question: Which results are given for CCCCC[C@@H](C(=O)NCNC(=O)c1ccc(-c2ccc(C(=O)N[C@@H](CC(=O)O)C(=O)O)c(OCC)c2)o1)[C@@H](CC)N(C=O)OC(=O)c1ccc(OC)cc1?
Answer: Drug metabolism [1]: Metabolite_Detected; IC50 [2]: < 3.98 µM

Question: With CCCCC[C@@H](C(=O)NCNC(=O)c1ccc(-c2ccc(C(=O)N[C@@H](CC(=O)O)C(=O)O)c(OCC)c2)o1)[C@@H](CC)N(C=O)OC(=O)c1cccc(N(C)C)c1 as the compound, how does the Drug metabolism [1] read?
Answer: Metabolite_Detected

Question: For CCCCC[C@@H](C(=O)NCNC(=O)c1ccc(-c2ccc(C(=O)N[C@@H](CC(=O)O)C(=O)O)c(OCC)c2)o1)[C@@H](CC)N(C=O)OC(=O)C(CC)CC, which Drug metabolism [1] is on record?
Answer: Metabolite_Detected

Question: And the IC50 [2]?
Answer: < 3.98 µM

Question: Which results are given for CCCCC[C@@H](C(=O)NCNC(=O)c1ccc(-c2ccc(C(=O)N[C@@H](CC(=O)O)C(=O)O)c(OCC)c2)o1)[C@@H](CC)N(C=O)OC(=O)c1c(C)cccc1F?
Answer: Drug metabolism [1]: Metabolite_Detected; IC50 [2]: < 3.98 µM

Question: Which Drug metabolism [1] does the source give for CCCCC[C@@H](C(=O)NCNC(=O)c1ccc(-c2ccc(C(=O)N[C@@H](CC(=O)O)C(=O)O)c(OCC)c2)o1)[C@@H](CC)N(C=O)OC(=O)c1cccc(NC)c1 here?
Answer: Metabolite_Detected

Question: With CCCCC[C@@H](C(=O)NCNC(=O)c1ccc(-c2ccc(C(=O)N[C@@H](CC(=O)O)C(=O)O)c(OCC)c2)o1)[C@@H](CC)N(C=O)OC(=O)c1ccc(OC)cc1C(C)C as the compound, how does the Drug metabolism [1] read?
Answer: Metabolite_Detected

Question: For CCCCC[C@@H](C(=O)NCNC(=O)c1ccc(-c2ccc(C(=O)N[C@@H](CC(=O)O)C(=O)OCc3oc(=O)oc3C)c(OCC)c2)o1)[C@@H](CC)N(O)C=O, which Drug metabolism [1] is on record?
Answer: Metabolite_Detected

Question: Which Drug metabolism [1] does the source give for CCCCC[C@@H](C(=O)NCNC(=O)c1ccc(-c2ccc(C(=O)N[C@@H](CC(=O)O)C(=O)O)c(OCC)c2)o1)[C@@H](CC)N(C=O)OC(=O)c1ccc(NC)cc1 here?
Answer: Metabolite_Detected

Question: For CCCCC[C@@H](C(=O)NCNC(=O)c1ccc(-c2ccc(C(=O)N[C@@H](CC(=O)O)C(=O)O)c(OCC)c2)o1)[C@@H](CC)N(C=O)OC(=O)c1ccc(N)cc1, which Drug metabolism [1] is on record?
Answer: Metabolite_Detected

Question: Which Drug metabolism [1] does the source give for CCCCC[C@@H](C(=O)NCNC(=O)c1ccc(-c2ccc(C(=O)N[C@@H](CC(=O)O)C(=O)O)c(OCC)c2)o1)[C@@H](CC)N(C=O)OC(=O)c1ccc(CN2CCOCC2)cc1C here?
Answer: Metabolite_Detected

Question: What about the IC50 [2] of the same compound?
Answer: < 3.98 µM

Question: What does the source list for CCCCC[C@@H](C(=O)NCNC(=O)c1ccc(-c2ccc(C(=O)N[C@@H](CC(=O)O)C(=O)OCOC(=O)C(C)C)c(OCC)c2)o1)[C@@H](CC)N(O)C=O?
Answer: Drug metabolism [1]: Metabolite_Detected; IC50 [2]: < 3.98 µM

Question: What does the source list for CCCCC[C@@H](C(=O)NCNC(=O)c1ccc(-c2ccc(C(=O)N[C@@H](CC(=O)O)C(=O)O)c(OCC)c2)o1)[C@@H](CC)N(C=O)OC(=O)c1ccc([N+](=O)[O-])cc1?
Answer: Drug metabolism [1]: Metabolite_Detected; IC50 [2]: < 3.98 µM

Question: With CCCCC[C@@H](C(=O)NCNC(=O)c1ccc(-c2ccc(C(=O)N[C@@H](CC(=O)O)C(=O)O)c(OCC)c2)o1)[C@@H](CC)N(C=O)OC(=O)c1ccc(C(F)(F)F)cc1 as the compound, how does the Drug metabolism [1] read?
Answer: Metabolite_Detected

Question: What about the IC50 [2] of the same compound?
Answer: < 3.98 µM

Question: For CCCCC[C@@H](C(=O)NCNC(=O)c1ccc(-c2ccc(C(=O)N[C@@H](CC(=O)O)C(=O)O)c(OCC(=O)O)c2)o1)[C@@H](CC)N(C=O)OC(=O)NC, which Drug metabolism [3] is on record?
Answer: Metabolite_Detected

Question: With CCCCC[C@@H](C(=O)NCNC(=O)c1ccc(-c2ccc(C(=O)N[C@@H](CC(=O)O)C(=O)O)c(OCC)c2)o1)[C@@H](CC)N(C=O)OC(=O)c1ccc(OC)cc1C.N.N as the compound, how does the Drug metabolism [1] read?
Answer: Metabolite_Detected

Question: For CCCCC[C@@H](C(=O)NCNC(=O)c1ccc(-c2ccc(C(=O)N[C@@H](CC(=O)O)C(=O)O)c(OCC)c2)o1)[C@@H](CC)N(C=O)OC(=O)c1ccc(N2CCCC2=O)cc1.N.N, which Drug metabolism [1] is on record?
Answer: Metabolite_Detected

Question: And the IC50 [2]?
Answer: < 3.98 µM

Question: With CCCCC[C@@H](C(=O)NCNC(=O)c1ccc(-c2ccc(C(=O)N[C@@H](CC(=O)O)C(=O)O)c(OCC)c2)o1)[C@@H](CC)N(C=O)OC(=O)c1ccc([N+](=O)[O-])cc1C as the compound, how does the Drug metabolism [1] read?
Answer: Metabolite_Detected

Question: For CCCCC[C@@H](C(=O)NCNC(=O)c1ccc(-c2ccc(C(=O)N[C@@H](CC(=O)O)C(=O)O)c(OCC)c2)o1)[C@@H](CC)N(C=O)OC(=O)c1c(C)cccc1OP(=O)(O)O, which Drug metabolism [1] is on record?
Answer: Metabolite_Detected

Question: For CCCCC[C@@H](C(=O)NCNC(=O)c1ccc(-c2ccc(C(=O)N[C@@H](CC(=O)O)C(=O)O)c(OCC)c2)o1)[C@@H](CC)N(C=O)OC(=O)c1ccc(-n2cccn2)cc1, which Drug metabolism [1] is on record?
Answer: Metabolite_Detected

Question: What about the IC50 [2] of the same compound?
Answer: < 3.98 µM

Question: Which Drug metabolism [1] does the source give for CCCCC[C@@H](C(=O)NCNC(=O)c1ccc(-c2ccc(C(=O)N[C@@H](CC(=O)O)C(=O)O)c(OCC)c2)o1)[C@@H](CC)N(C=O)OC(=O)c1ccc(CN)cc1 here?
Answer: Metabolite_Detected

Question: With CCCCC[C@@H](C(=O)NCNC(=O)c1ccc(-c2ccc(C(=O)N[C@@H](CC(=O)O)C(=O)O)c(OCC)c2)o1)[C@@H](CC)N(C=O)OC(=O)c1ccc(OCCOCCO)cc1 as the compound, how does the Drug metabolism [1] read?
Answer: Metabolite_Detected

Question: What about the IC50 [2] of the same compound?
Answer: < 3.98 µM

Question: Which Drug metabolism [1] does the source give for CCCCC[C@@H](C(=O)NCNC(=O)c1ccc(-c2ccc(C(=O)N[C@@H](CC(=O)O)C(=O)O)c(OCC)c2)o1)[C@@H](CC)N(C=O)OC(=O)NC(C)C here?
Answer: Metabolite_Detected

Question: What about the IC50 [2] of the same compound?
Answer: < 3.98 µM

Question: Which results are given for CCCCC[C@@H](C(=O)NCNC(=O)c1ccc(-c2ccc(C(=O)N[C@@H](CC(=O)O)C(=O)O)c(OCC)c2)o1)[C@@H](CC)N(C=O)OC(=O)c1ccc(OC)c(OC)c1?
Answer: Drug metabolism [1]: Metabolite_Detected; IC50 [2]: < 3.98 µM

Question: Which results are given for CCCCC[C@@H](C(=O)NCNC(=O)c1ccc(-c2ccc(C(=O)N[C@@H](CC(=O)O)C(=O)O)c(OCC)c2)o1)[C@@H](CC)N(C=O)OC(=O)C1CCNCC1.O=C(O)C(F)(F)F?
Answer: Drug metabolism [1]: Metabolite_Detected; IC50 [2]: < 3.98 µM

Question: For CCCCC[C@@H](C(=O)NCNC(=O)c1ccc(-c2ccc(C(=O)N[C@@H](CC(=O)O)C(=O)O)c(OCC)c2)o1)[C@@H](CC)N(C=O)OC(=O)c1ccc2c(c1)N(C)CCO2.N.N, which Drug metabolism [1] is on record?
Answer: Metabolite_Detected

Question: And the IC50 [2]?
Answer: < 3.98 µM

Question: For CCCCC[C@@H](C(=O)NCNC(=O)c1ccc(-c2ccc(C(=O)N[C@@H](CC(=O)O)C(=O)O)c(OCC)c2)o1)[C@@H](CC)N(C=O)OC(=O)c1ccc(F)cc1C(C)C, which Drug metabolism [1] is on record?
Answer: Metabolite_Detected

Question: And the IC50 [2]?
Answer: < 3.98 µM

Question: For CCCCC[C@@H](C(=O)NCNC(=O)c1ccc(-c2ccc(C(=O)N[C@@H](CC(=O)O)C(=O)O)c(OCC)c2)o1)[C@@H](CC)N(C=O)OC(=O)c1ccc(OC)cc1Br, which Drug metabolism [1] is on record?
Answer: Metabolite_Detected

Question: Which Drug metabolism [1] does the source give for CCCCC[C@@H](C(=O)NCNC(=O)c1ccc(-c2ccc(C(=O)N[C@@H](CC(=O)O)C(=O)O)c(OCC)c2)o1)[C@@H](CC)N(C=O)OC(=O)c1ccc(-n2ccnc2)cc1 here?
Answer: Metabolite_Detected

Question: What about the IC50 [2] of the same compound?
Answer: < 3.98 µM

Question: Which Drug metabolism [1] does the source give for CCCCC[C@@H](C(=O)NCNC(=O)c1ccc(-c2ccc(C(=O)N[C@@H](CC(=O)O)C(=O)Oc3ccccc3)c(OCC)c2)o1)[C@@H](CC)N(O)C=O here?
Answer: Metabolite_Detected

Question: Which Drug metabolism [1] does the source give for CCCCC[C@@H](C(=O)NCNC(=O)c1ccc(-c2ccc(C(=O)N[C@@H](CC(=O)O)C(=O)O)c(OCC)c2)o1)[C@@H](CC)N(C=O)OCOC(=O)C(C)(C)C here?
Answer: Metabolite_Detected

Question: What about the IC50 [2] of the same compound?
Answer: < 3.98 µM

Question: For CCCCC[C@@H](C(=O)NCNC(=O)c1ccc(-c2ccc(C(=O)N[C@@H](CC(=O)O)C(=O)O)c(OCC(=O)O)c2)o1)[C@@H](CC)N(C=O)OC(=O)C1CC1C (some centres undefined), which Drug metabolism [3] is on record?
Answer: Metabolite_Detected

Question: Which Drug metabolism [1] does the source give for CCCCC[C@@H](C(=O)NCNC(=O)c1ccc(-c2ccc(C(=O)N[C@@H](CC(=O)O)C(=O)O)c(OCC)c2)o1)[C@@H](CC)N(C=O)OC(=O)c1ccc(N(C)S(C)(=O)=O)cc1 here?
Answer: Metabolite_Detected

Question: And the IC50 [2]?
Answer: < 3.98 µM

Question: With CCCCC[C@@H](C(=O)NCNC(=O)c1ccc(-c2ccc(C(=O)N[C@@H](CC(=O)O)C(=O)O)c(OCC)c2)o1)[C@@H](CC)N(C=O)OC(=O)c1ccc(CN2CCOCC2)cc1 as the compound, how does the Drug metabolism [1] read?
Answer: Metabolite_Detected

Question: What about the IC50 [2] of the same compound?
Answer: < 3.98 µM

Question: With CCCCC[C@@H](C(=O)NCNC(=O)c1ccc(-c2ccc(C(=O)N[C@@H](CC(=O)O)C(=O)O)c(OCC)c2)o1)[C@@H](CC)N(C=O)OC(=O)c1cccc(N)c1 as the compound, how does the Drug metabolism [1] read?
Answer: Metabolite_Detected

Question: Which Drug metabolism [1] does the source give for CCCCC[C@@H](C(=O)NCNC(=O)c1ccc(-c2ccc(C(=O)N[C@@H](CC(=O)O)C(=O)O)c(OCC)c2)o1)[C@@H](CC)N(C=O)OC(=O)c1ccc(-n2cccc2)cc1.N.N here?
Answer: Metabolite_Detected

Question: Which Drug metabolism [1] does the source give for CCCCC[C@@H](C(=O)NCNC(=O)c1ccc(-c2ccc(C(=O)N[C@@H](CC(=O)O)C(=O)O)c(OCC)c2)o1)[C@@H](CC)N(C=O)OC(=O)Nc1ccccc1 here?
Answer: Metabolite_Detected

Question: For CCCCC[C@@H](C(=O)NCNC(=O)c1ccc(-c2ccc(C(=O)N[C@@H](CC(=O)O)C(=O)O)c(OCC)c2)o1)[C@@H](CC)N(C=O)OC(=O)c1ccc(OC)cc1Cl, which Drug metabolism [1] is on record?
Answer: Metabolite_Detected

Question: Which Drug metabolism [3] does the source give for CCCCC[C@@H](C(=O)NCNC(=O)c1ccc(-c2ccc(C(=O)N[C@@H](CC(=O)O)C(=O)O)c(OCC(=O)O)c2)o1)[C@@H](CC)N(C=O)OC(=O)c1ccc(OC)cc1 here?
Answer: Metabolite_Detected

Question: Which results are given for CCCCC[C@@H](C(=O)NCNC(=O)c1ccc(-c2ccc(C(=O)N[C@@H](CC(=O)O)C(=O)O)c(OCC)c2)o1)[C@@H](CC)N(C=O)OC(=O)c1cccc(N2CCCC2)c1.N.N?
Answer: Drug metabolism [1]: Metabolite_Detected; IC50 [2]: < 3.98 µM

Question: Which Drug metabolism [3] does the source give for CCCCC[C@@H](C(=O)NCNC(=O)c1ccc(-c2ccc(C(=O)N[C@@H](CC(=O)O)C(=O)O)c(OCC(=O)O)c2)o1)[C@@H](CC)N(C=O)OC(=O)c1cccc(C(=O)O)c1 here?
Answer: Metabolite_Detected

Question: With CCCCC[C@@H](C(=O)NCNC(=O)c1ccc(-c2ccc(C(=O)N[C@@H](CC(=O)O)C(=O)O)c(OCC)c2)o1)[C@@H](CC)N(C=O)OC(=O)c1ccc(F)cc1C as the compound, how does the Drug metabolism [1] read?
Answer: Metabolite_Detected

Question: And the IC50 [2]?
Answer: < 3.98 µM
